The values below come from article PMC8047676 (ACS Omega, 2021).

The subject of data set [1] is CHIKV. The note with it: cited from earlier work.
Data set [2] deals with CHIKV. The note with it: Vero A cells, cited from earlier work.
For data set [3], the system named is CHIKV envelope E2 glycoprotein. The data set can be described thus: Western blot of CHIKV E2 protein in infected BHK-21 cells. The data set is classed as cell-based, Chikungunya virus (CHIKV). The note with it: 24 h.
Data set [4] is described as follows: MTT cellular cytotoxicity assay. The note with it: hamster, BHK-21 cells. The data set is classed as cell-based.
In data set [5] the test system is CHIKV prototype strain S27. The data set can be described thus: Plaque assay of CHIKV-infected BHK-21 cells. The data set is classed as cell-based, Chikungunya virus (CHIKV). The note with it: for plaque numbers reduced: BHK-21 cells, CHIKV S27 MOI 0.01, 24 hpi.
For another data set, the system named is BHK-21 cells. The data set can be described thus: Microscopic observation of cell morphology. The conditions noted are these: 5, 10 and 20 μM, 24 h, microscope. Type of data set: cell-based, hamster.
The next data set deals with CHIKV nsP2 RNA. The data set can be described thus: RT-PCR of CHIKV nsP2 RNA in infected BHK-21 cells. Type of data set: cell-based, Chikungunya virus (CHIKV). The note with it: 24 h post treatment, normalized to GAPDH.
A further data set has as its system CHIKV E2 protein. The data set can be described thus: Flow cytometry of E2 protein expression in infected BHK-21 cells. The data set is classed as cell-based, Chikungunya virus (CHIKV). The conditions noted are these: for percentages of infected cells showing E2 expression reduced: flow cytometry, 24 h post treatment. In general terms: In flow cytometry, cells or beads pass a laser one at a time.

A further data set concerns CHIKV E2 RNA. The data set is described as follows: RT-PCR of CHIKV E2 RNA in infected BHK-21 cells. Type of data set: cell-based, Chikungunya virus (CHIKV). The conditions noted are these: 24 h post treatment, normalized to GAPDH.
Data set [6] deals with CHIKV nonstructural protein nsP2. The data set can be described thus: Western blot of CHIKV nsP2 protein in infected BHK-21 cells. Type of data set: cell-based, Chikungunya virus (CHIKV). The conditions noted are these: 24 h. A general note: In western blotting, separated proteins are transferred to a membrane and probed.
Another data set deals with CHIKV nsP2 protein. The data set can be described thus: Flow cytometry of nsP2 protein expression in infected BHK-21 cells. Type of data set: cell-based, Chikungunya virus (CHIKV). The note with it: for numbers of cells expressing nsP2 protein reduced: flow cytometry, 24 h post treatment.
[7] abbreviates: ribavirin treatment, concentration not given.

In general, IC50 refers to the concentration that inhibits the measured activity by half. In general, IC90 refers to the concentration at which the effect reaches the 90% level. Broadly, the CC50 is the concentration giving 50% cytotoxicity. A higher CC50 goes with better tolerance by the cells.

Values after ≈ are worked out from the molar mass of the structure shown. Values joined by “and” are separate entries in the source; they are usually repeats but may differ in a detail not shown here. Equal values may be shown once. Where only a bound is given, the exact number is not on record here.

As for `CCN(CC)CCCC(C)Nc1ccnc2cc(Cl)ccc12` (centres unmarked) [Chloroquine], the “IC50, antiviral effects in vitro” value with CHIKV [1] was 1.1 µg/mL (≈ 3.44 µM). Also, the concentration for half-maximal inhibition (IC50) in the data set on CHIKV [2] (read-out: IC50, inhibition of CHIKV replication) is 7 µM. In addition, in the data set with CHIKV [2] (read-out: IC90, inhibition of CHIKV replication), the IC90 was 15 µM.
As to `Cn1c(=O)c(C(=O)CCN2CCOCC2)c(O)c2ccccc21` [QVIR, 4-hydroxy-1-methyl-3-(3-morpholinopropanoyl)quinoline-2(1H)-one], the “E2 protein levels suppressed” value in data set [3] (5 μM) stood at 22.8%; in data set [3] (10 μM) it was 45.8%; in data set [3] (20 μM) it was 53.9%. This compound showed a CC50 at 24 h in data set [4] of over 200 µM. Further, the figures for the plaque numbers reduced in data set [5] (5 μM), in data set [5] (10 μM) and in [5] (20 μM) were 82.62%, 97.86% and 99.61%, respectively. For the same compound, in data set [5] (Chikungunya virus, BHK-21, 24 h, read-out: EC50 (50% effective concentration) against CHIKV infection), the EC50 was 2.2 ± 0.49 µM. Moreover, the “morphological changes of BHK-21 cells” value in the data set on BHK-21 cells was “inertness”. Moreover, the “RNA levels of nsP2 decreased” value in the data set with CHIKV nsP2 RNA (5 μM) is 52.1%; in the data set with CHIKV nsP2 RNA (10 μM) it was 67.5%; in the data set with CHIKV nsP2 RNA (20 μM) it was 84% and 84.1%. Moreover, the “percentages of infected cells showing E2 expression reduced” value with CHIKV E2 protein (5 μM) stood at 44.60%; with CHIKV E2 protein (10 μM) it was 51.22%; in the data set on CHIKV E2 protein (20 μM), 67.7%. The “RNA levels of E2 diminished” value was 39% with CHIKV E2 RNA (5 μM), 55.6% in the data set on CHIKV E2 RNA (10 μM) and 74% with CHIKV E2 RNA (20 μM). The “protein levels of nsP2 reduced” value was 63.4% in data set [6] (10 μM) and 69.9% in data set [6] (20 μM). For the same compound, the results for the “numbers of cells expressing nsP2 protein reduced” value in the data set with CHIKV nsP2 protein (5 μM), in the data set on CHIKV nsP2 protein (10 μM) and with CHIKV nsP2 protein (20 μM) were 43.25%, 54.04% and 71.48%, respectively.
With `NC(=O)c1ncn([C@@H]2O[C@H](CO)[C@@H](O)[C@H]2O)n1` [Ribavirin, reference compound], the plaque numbers reduced in data set [5] (10 μM) was found to be 99.15%. In addition, in the data set with CHIKV nsP2 RNA (10 μM), the “RNA levels of nsP2 decreased” value is on record as 82.7%. For the same compound, in the data set on CHIKV E2 protein (setting [7]), the “viral E2 protein level by flow cytometry” value is “decreased”. Also, in the data set on CHIKV E2 RNA (10 μM), the “RNA levels of E2 diminished” value was found to be 75.8%. Further, in the data set with CHIKV nsP2 protein (setting [7]), the “viral nsP2 protein level by flow cytometry” value was “decreased”.
Turning to `C=C[C@H]1C[N@@]2CC[C@H]1C[C@H]2[C@H](O)c1ccnc2ccc(OC)cc12` [quinine], the “IC50, inhibits CHIKV in vitro” value in the data set with CHIKV [1] was 0.1 µg/mL (≈ 0.308 µM).
